The text below walks through data of patent publication US11731943B2, “Therapeutic compounds, compositions and methods of use thereof” (priority 2016, dated 2023).

Assay [1] has as its target isolated recombinant JAK2 kinase domain (Homo sapiens (Human), UniProt O60674). The experiment in a line: JAK2 enzyme assay (Caliper LabChip, Ki). Format: biochemical. Put shortly:
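Caliper LabChip readout of phosphorylated product as a fraction of total substrate, a fluorescently N-terminally labelled JAK3-derived peptide. Isolated human JAK kinase domains were incubated 30 min at 22 °C before EDTA quench (50 mM final).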

The subject of assay [2] is JAK1-dependent STAT6 phosphorylation downstream of IL-13 stimulation in BEAS-2B human bronchial epithelial cells. The experiment in a line: JAK1 pathway assay in BEAS-2B cells (IL-13-pSTAT6, MSD). In kind it is cell-based. The note with it: BEAS-2B cells, IL-13 stimulation, read-out: IL-13 p-STAT6 BEAS-2B IC50.
In assay [3] the target is isolated recombinant JAK1 kinase domain (Homo sapiens (Human), UniProt P23458). The experiment in a line: JAK1 enzyme assay (Caliper LabChip, Ki). Format: biochemical. Put shortly: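 Ki derived via Morrison tight-binding model, ATP-competitive correction applied. Read-out: product/total ratio of a 5-carboxyfluorescein-tagged JAK3 peptide separated on Caliper LabChip after phosphorylation by isolated human JAK1 kinase domain (22 °C, 30 min; EDTA quench, 50 mM final).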

Read-outs that look alike come from different tables or passages of the source.

By Ki is commonly meant a measure of affinity in units of concentration, obtained from inhibition or displacement. As usually defined, the IC50 is the point on the concentration scale where inhibition reaches its midpoint.

Sequence of isolated recombinant JAK2 kinase domain (O60674 849-1124): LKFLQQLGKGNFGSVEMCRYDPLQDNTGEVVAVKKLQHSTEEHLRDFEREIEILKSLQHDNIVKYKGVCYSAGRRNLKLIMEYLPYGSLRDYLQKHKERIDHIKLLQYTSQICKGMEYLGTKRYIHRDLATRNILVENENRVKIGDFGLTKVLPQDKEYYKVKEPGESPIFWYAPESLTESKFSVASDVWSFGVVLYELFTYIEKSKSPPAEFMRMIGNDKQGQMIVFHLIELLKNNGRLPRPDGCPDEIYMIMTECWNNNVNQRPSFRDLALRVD
Sequence of isolated recombinant JAK1 kinase domain (P23458 875-1153): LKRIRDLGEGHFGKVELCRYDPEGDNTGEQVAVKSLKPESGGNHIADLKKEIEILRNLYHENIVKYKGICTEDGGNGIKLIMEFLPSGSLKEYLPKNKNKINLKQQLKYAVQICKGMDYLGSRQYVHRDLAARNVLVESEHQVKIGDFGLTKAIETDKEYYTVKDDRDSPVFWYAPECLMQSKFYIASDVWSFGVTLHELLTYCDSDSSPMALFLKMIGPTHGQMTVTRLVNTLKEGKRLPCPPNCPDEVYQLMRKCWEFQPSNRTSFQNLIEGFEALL

As to `COC(=O)Nc1nn(C2(CC#N)CCN(Cc3ccc(-n4ncc(C)n4)cc3)CC2F)cc1C(N)=O` (stereo not drawn) [Example 267, methyl N-[4-carbamoyl-1-[4-(cyanomethyl)-3-fluoro-1-[[4-(4-methyltriazol-2-yl)phenyl]methyl]-4-piperidyl]pyrazol-3-yl]carbamate], the Ki stood at 0.84 nM in assay [1] and 0.86 nM in assay [3] (read-out: JAK1 Ki). Besides, the IC50 in assay [2] (Homo sapiens, BEAS-2B) was 51 nM.

Take `Cc1cc(CN2CCC(CC#N)(n3cc(C(N)=O)c(NC(=O)C4CC4)n3)CC2)ccc1-c1ccccc1` [Example 160, 1-[4-(cyanomethyl)-1-[(3-methyl-4-phenyl-phenyl)methyl]-4-piperidyl]-3-(cyclopropanecarbonylamino) pyrazole-4-carboxamide]: the figures for the Ki in assay [1] and in assay [3] (read-out: JAK1 Ki) were 12 nM and 3.2 nM, respectively. In assay [2] (Homo sapiens, BEAS-2B), the IC50 was 186 nM.

Consider `N#CC[C@]1(n2cc(C(N)=O)c(NC(=O)C3CC3)n2)CC[C@H](NCc2ccccc2Cl)CC1` [Example 117], for which the results for the Ki in assay [1] and in assay [3] were 54.7 nM and 3.7 nM, respectively. Also, in assay [2] (Homo sapiens, BEAS-2B), the IC50 amounted to 611 nM.

For `N#CCC1(n2cc(C(N)=O)c(NC(=O)C3CC3)n2)CCN(Cc2ccc(-c3csc(Cl)c3)cc2)CC1` [Example 149, 1-[1-[[4-(5-chloro-3-thienyl)phenyl]methyl]-4-(cyanomethyl)-4-piperidyl]-3-(cyclopropanecarbonylamino) pyrazole-4-carboxamide], the Ki in assay [1] was 4.7 nM; in assay [3] (read-out: JAK1 Ki), 0.7 nM. Also, the IC50 in assay [2] (Homo sapiens, BEAS-2B) is 41 nM.

As to `N#CCC1(n2cc(C(N)=O)c(NC(=O)C3CC3C#N)n2)CCN(Cc2ccc(-c3ccccc3)cc2F)CC1F` (stereo not drawn) [Example 218, 3-[(2-cyanocyclopropanecarbonyl)amino]-1-[4-(cyanomethyl)-3-fluoro-1-[(2-fluoro-4-phenyl-phenyl)methyl]-4-piperidyl]pyrazole-4-carboxamide], the Ki turned out to be 0.59 nM in assay [1] and 0.35 nM in assay [3] (read-out: JAK1 Ki). Also, the IC50 in assay [2] was found to be 28 nM.

Take `N#CCC1(n2cc(C(N)=O)c(NC(=O)C3CC3)n2)CCN(Cc2ccc(-c3ccoc3)cc2)CC1F` (stereo not drawn) [Example 214, 1-[4-(cyanomethyl)-3-fluoro-1-[[4-(3-furyl)phenyl]methyl]-4-piperidyl]-3-(cyclopropanecarbonylamino) pyrazole-4-carboxamide]: the Ki in assay [1] is 0.62 nM; in assay [3] (read-out: JAK1 Ki), 0.31 nM. Further, in assay [2] (Homo sapiens, BEAS-2B), the IC50 stood at 42 nM.

In the case of `N#CC[C@]1(n2cc(C(N)=O)c(NC(=O)C3CC3)n2)CCN(Cc2ccc(-c3ccccc3)cc2)C[C@@H]1F` (single isomer, unassigned) [Example 12], the values for the Ki in assay [1] and in assay [3] (read-out: JAK1 Ki) were 6.8 nM and 1.3 nM, respectively. Also, the IC50 in assay [2] (Homo sapiens, BEAS-2B) worked out at 103 nM.

Turning to `COC(=O)Nc1nn(C2(CC#N)CCN(Cc3ccc(-n4nccn4)c(O)c3)CC2F)cc1C(N)=O` (stereo not drawn) [Example 287, methyl N-[4-carbamoyl-1-[4-(cyanomethyl)-3-fluoro-1-[[3-hydroxy-4-(triazol-2-yl)phenyl]methyl]-4-piperidyl]pyrazol-3-yl]carbamate], the Ki in assay [1] worked out at 0.43 nM; in assay [3] (read-out: JAK1 Ki), 0.35 nM. Moreover, in assay [2] (Homo sapiens, BEAS-2B), the IC50 stood at 32 nM.

In the case of `N#CCC1(n2cc(C(N)=O)c(NC(=O)C3CC3)n2)CCN(Cc2ccc(Br)c(F)c2)CC1` [Example 77], the Ki in assay [1] stood at 44.7 nM; in assay [3] (read-out: JAK1 Ki) it was 2.6 nM. The IC50 in assay [2] (Homo sapiens, BEAS-2B) worked out at 227 nM.

With `COC(=O)Nc1nn(C2(CC#N)CCN(Cc3ccc(-c4ccco4)c(O)c3)CC2F)cc1C(N)=O` (stereo not drawn) [Example 224, methyl N-[4-carbamoyl-1-[4-(cyanomethyl)-3-fluoro-1-[[4-(2-furyl)-3-hydroxy-phenyl]methyl]-4-piperidyl]pyrazol-3-yl]carbamate], the inhibition constant Ki in assay [1] amounted to 0.15 nM; in assay [3] (read-out: JAK1 Ki), 0.16 nM. In addition, the IC50 in assay [2] (Homo sapiens, BEAS-2B) stood at 19 nM.

Turning to `CCOP(=O)(OCC)c1ccc(Nc2nn([C@]3(CC#N)CC[C@@H](N4CC(C(F)(F)F)C4)CC3)cc2C(N)=O)cc1` [Example 303, Diethyl (4-((4-carbamoyl-1-((1R,4R)-1-(cyanomethyl)-4-(3-(trifluoromethyl)azetidin-1-yl)cyclohexyl)-1H-pyrazol-3-yl)amino)phenyl)phosphonate], the inhibitory constant (Ki) in assay [1] worked out at 0.66 nM; in assay [3] (read-out: JAK1 Ki) it was 0.39 nM. The IC50 in assay [2] (Homo sapiens, BEAS-2B) is 34 nM.

Regarding `N#CCC1(n2cc(C(N)=O)c(NC(=O)C3CC3)n2)CCN(Cc2ccc(-c3ccc(Cl)s3)cc2)CC1` [Example 148, 1-[1-[[4-(5-chloro-2-thienyl)phenyl]methyl]-4-(cyanomethyl)-4-piperidyl]-3-(cyclopropanecarbonylamino) pyrazole-4-carboxamide], the Ki in assay [1] was 21.2 nM; in assay [3] (read-out: JAK1 Ki) it was 1.8 nM. The IC50 in assay [2] (Homo sapiens, BEAS-2B) was 48 nM.
